Data published in patent US20180155344A1, “TRICYCLIC PIPERIDINE COMPOUNDS” (ACTELION PHARMACEUTICALS LTD, priority 2015, published 2018).

Target: T1, human TPH1 (Homo sapiens, UniProt P17752)
T1 sequence (P17752 1-444): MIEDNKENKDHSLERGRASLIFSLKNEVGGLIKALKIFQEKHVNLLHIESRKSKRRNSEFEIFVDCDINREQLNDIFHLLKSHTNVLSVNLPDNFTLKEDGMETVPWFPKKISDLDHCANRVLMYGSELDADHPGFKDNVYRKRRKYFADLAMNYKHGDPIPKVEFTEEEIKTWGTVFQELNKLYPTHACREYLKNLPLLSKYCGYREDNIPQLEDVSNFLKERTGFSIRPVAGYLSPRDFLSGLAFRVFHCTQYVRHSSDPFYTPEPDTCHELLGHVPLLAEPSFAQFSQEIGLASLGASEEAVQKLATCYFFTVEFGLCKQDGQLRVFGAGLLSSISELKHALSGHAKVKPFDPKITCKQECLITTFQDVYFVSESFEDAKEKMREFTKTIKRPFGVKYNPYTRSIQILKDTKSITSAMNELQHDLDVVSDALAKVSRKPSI
Test: biochemical
Method in brief: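 Inhibition is derived from 5-hydroxy-L-tryptophan fluorescence (540 nm emission, 300 nm excitation) after perchloric acid stop, relative to DMSO vehicle. Recombinant full-length human enzyme (40-80 nM) reacts with 40 μM tryptophan plus 100 μM methyltetrahydropterin, pH 7.6 Tris/DTT/catalase, 15° C, 60 min.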

Row | SMILES | IC50 [nM]
1 | Cc1noc(C)c1C1c2c(nc3cc(C(F)(F)F)ccn23)CCN1C(=O)COc1ccc(CN2CCOCC2)cc1Cl (centres unmarked) [Example 3.51.2, 2-(2-chloro-4-(morpholinomethyl)phenoxy)-1-(1-(3,5-dimethylisoxazol-4-yl)-7-(trifluoromethyl)-3,4-dihydroimidazo[1,2-a:5,4-c′]dipyridin-2(1H)-yl)ethan-1-one] | 217
2 | COc1ccc(C2c3c(nc4cc(C(F)(F)F)ccn34)CCN2C(=O)COc2ccc3ccccc3c2)nc1 (centres unmarked) [Example 3.52.1, 1-(1-(5-methoxypyridin-2-yl)-7-(trifluoromethyl)-3,4-dihydroimidazo[1,2-a:5,4-c′]dipyridin-2(1H)-yl)-2-(naphthalen-2-yloxy)ethan-1-one] | 90
3 | COc1ccc(C2c3c(nc4cc(C(F)(F)F)ccn34)CCN2C(=O)COc2ccc(CN3CCOCC3)cc2Cl)nc1 (centres unmarked) [Example 3.52.2, 2-(2-chloro-4-(morpholinomethyl)phenoxy)-1-(1-(5-methoxypyridin-2-yl)-7-(trifluoromethyl)-3,4-dihydroimidazo[1,2-a:5,4-c′]dipyridin-2(1H)-yl)ethan-1-one] | 74
4 | Cc1ncc(C2c3c(nc4cc(C(F)(F)F)ccn34)CCN2C(=O)COc2ccc3ccccc3c2)cn1 (centres unmarked) [Example 3.53.1, 1-(1-(2-methylpyrimidin-5-yl)-7-(trifluoromethyl)-3,4-dihydroimidazo[1,2-a:5,4-c′]dipyridin-2(1H)-yl)-2-(naphthalen-2-yloxy)ethan-1-one] | 161
5 | CCc1ncc(C2c3c(nc4cc(C(F)(F)F)ccn34)CCN2C(=O)COc2ccc3ccccc3c2)cn1 (centres unmarked) [Example 3.54.1, 1-(1-(2-ethylpyrimidin-5-yl)-7-(trifluoromethyl)-3,4-dihydroimidazo[1,2-a:5,4-c′]dipyridin-2(1H)-yl)-2-(naphthalen-2-yloxy)ethan-1-one] | 203
6 | CCc1ncc(C2c3c(nc4cc(C(F)(F)F)ccn34)CCN2C(=O)COc2ccc(CN3CCOCC3)cc2Cl)cn1 (centres unmarked) [Example 3.54.2, 2-(2-chloro-4-(morpholinomethyl)phenoxy)-1-(1-(2-ethylpyrimidin-5-yl)-7-(trifluoromethyl)-3,4-dihydroimidazo[1,2-a:5,4-c′]dipyridin-2(1H)-yl)ethan-1-one] | 415
7 | COc1ncc(C2c3c(nc4cc(C(F)(F)F)ccn34)CCN2C(=O)COc2ccc3ccccc3c2)cn1 (centres unmarked) [Example 3.55.1, 1-(1-(2-methoxypyrimidin-5-yl)-7-(trifluoromethyl)-3,4-dihydroimidazo[1,2-a:5,4-c′]dipyridin-2(1H)-yl)-2-(naphthalen-2-yloxy)ethan-1-one] | 67
8 | COc1ncc(C2c3c(nc4cc(C(F)(F)F)ccn34)CCN2C(=O)COc2ccc(CN3CCOCC3)cc2Cl)cn1 (centres unmarked) [Example 3.55.2, 2-(2-chloro-4-(morpholinomethyl)phenoxy)-1-(1-(2-methoxypyrimidin-5-yl)-7-(trifluoromethyl)-3,4-dihydroimidazo[1,2-a:5,4-c′]dipyridin-2(1H)-yl)ethan-1-one] | 266
9 | O=C(COc1ccc2ccccc2c1)N1CCc2nc3cc(C(F)(F)F)ccn3c2C1c1ccnc(Cl)c1 (centres unmarked) [Example 3.56.1, 1-(1-(2-chloropyridin-4-yl)-7-(trifluoromethyl)-3,4-dihydroimidazo[1,2-a:5,4-c′]dipyridin-2(1H)-yl)-2-(naphthalen-2-yloxy)ethan-1-one] | 195
10 | O=C(COc1ccc(CN2CCOCC2)cc1Cl)N1CCc2nc3cc(C(F)(F)F)ccn3c2C1c1ccnc(Cl)c1 (centres unmarked) [Example 3.56.2, 2-(2-chloro-4-(morpholinomethyl)phenoxy)-1-(1-(2-chloropyridin-4-yl)-7-(trifluoromethyl)-3,4-dihydroimidazo[1,2-a:5,4-c′]dipyridin-2(1H)-yl)ethan-1-one] | 295
11 | Cc1cc(C2c3c(nc4cc(C(F)(F)F)ccn34)CCN2C(=O)COc2ccc3ccccc3c2)ccn1 (centres unmarked) [Example 3.57.1, 1-(1-(2-methylpyridin-4-yl)-7-(trifluoromethyl)-3,4-dihydroimidazo[1,2-a:5,4-c′]dipyridin-2(1H)-yl)-2-(naphthalen-2-yloxy)ethan-1-one] | 155
